Experimental findings from a melting point compilation (Tetko et al.; mined from patent text by program, amines drawn as free bases though some values may be those of a salt) are described below.

For orientation: melting point means the temperature of the solid-liquid transition.

The structures appear in SMILES notation.

For the compound `CCOc1ccc2c(c1)n(C1CCCCC1)c(=O)n2Cc1ccc(C(=O)NC(C)(C)C)cc1OC`, the melting point turned out to be 186 °C. The result for `CC(C)(C)OC(=O)Nc1scc(C2CC2)c1C(=O)O` reads 175 to 176 °C. The result for `O=C(O)/C=C/c1ccc(-c2nc3c(=O)n(Cc4ccccc4)c(=O)n(Cc4ccccc4)c3[nH]2)cc1` reads > 300 °C. The result for `Cn1c(=O)nc(-c2ccccc2Cl)c2cc(Cl)sc21` reads 164 to 166 °C. `CCOc1ccc(CCNC(=O)/C=C/c2cccs2)cc1S(=O)(=O)NC(=S)NC` returned a melting point of 74 °C. Under `Cc1nc2c(N)nc3ccccc3c2n1CCOCCNC(=O)NC1CCCCC1` stands 207 to 209 °C; under `O=C(O)c1cccc(-c2ncc(O)cn2)c1`, 293 to 295 °C.

As to `CC(=Cc1ccc(C)cc1C)c1ccc2c(c1)C(C)(C)CCC2(C)C`, the melting point was 54 to 56 °C. The result for `CCn1cnc2c(Nc3cccc(N)c3)nc(N[C@H]3CC[C@H](O)CC3)nc21` reads 149 to 151 °C; that for `Cc1c(=O)n(Cc2ccccc2)c(=O)n2cc(C(=O)NCc3ccccc3)sc12`, 176 to 178 °C; that for `O=C1c2ccccc2C(=O)N1Nc1ccc(/C=C/C(c2cc(Cl)c(Cl)c(Cl)c2)C(F)(F)F)cc1` (stereo not drawn), 187 to 189 °C. Under `Cc1cn(-c2cc([N+](=O)[O-])cc(C(F)(F)F)c2)cn1` stands 118 to 119 °C; under `COC(=O)c1cc(NC(=O)C(F)(F)F)c2cc(Cc3ccc(F)cc3)cnc2c1O`, 191 to 192 °C. The compound `CC(=O)NC1Cc2cccc3cccc(c23)C1O` (stereo not drawn) registered a melting point of 205 to 206 °C. Under `CC(=O)C(=Cc1ccc2c(c1)OCO2)C(=O)OCc1ccccc1` stands 137 to 138 °C. The result for `CC(=O)Nc1ccc(Cc2cc(C)c(C(=O)c3ccc(Cl)cc3)n2C)nc1` reads 194 to 195 °C; that for `O=C(O)Cn1c(=O)sc2ccc(O)cc21`, 217 to 221 °C; that for `CN(Cc1ccc(C2=NCCN2C(=O)OC(C)(C)C)cc1)C(=O)OCc1ccccc1`, 124 °C.

`CC(C)(C)Sc1c(CC(C)(C)C(=O)O)n(Cc2ccc(Cl)cc2)c2c(OCc3ccc4ccccc4n3)cccc12` came in with a melting point of 206 °C. Under `CCCC1=C([N+](=O)[O-])C(c2ccccc2Cl)c2c[nH]nc2N1` (stereo not drawn) stands 228 °C; under `O=C(Cc1ccccc1)Nc1cc(-c2ccc(Cl)cc2)[nH]n1`, 222 to 224 °C; under `CSc1sc(C(N)=O)c2c1-c1nc(C)sc1CC2`, 269 to 270 °C.

In the case of `N#Cc1cnc2c(oc3ccccc32)c1Oc1ccc(Cl)cc1F`, the melting point was 138 to 140 °C. Under `CCC(O)(CC)c1ccc(-c2cccc(OCc3ccc(CO)c(CO)c3)c2C)cc1` stands 117 to 118 °C; under `COc1ccc(O)c2c1C(C)(C)CCC2(C)C`, 127 °C; under `CC(OC(C)(C)C(=O)O)c1cc(-c2ccc(Cl)cc2)no1` (single isomer, unassigned; (+)), 120 to 124 °C. Consider `CCOc1ccc(-c2ncccc2S(=O)(=O)Nc2ncc(C)nc2OC)cc1`, for which the melting point was in the range of 162 to 163 °C. The result for `COC(=O)Cc1cc(Br)c(S)c(Br)c1` reads 63.5 to 65 °C; that for `Cc1c(-c2cc(F)ccc2F)[nH]c(N)c1C#N`, 146 to 147 °C. Take `CCCCOC(=O)Cc1ccc(N[C@@H](CCC(N)=O)C(=O)O)cc1`: the melting point was 177 to 179 °C.

`CCN(CC)C(=O)n1cnc(S(=O)(=O)Cc2ccccc2)n1` gave a melting point of 87 to 88 °C. The result for `Nc1ccc(C(=S)OC2CCCCC2)c(Cl)c1` reads 97 to 100 °C; that for `CCC(CC(=O)NC(=O)OC(C)(C)C)Nc1ccccc1` (stereo not drawn), 105 to 106 °C; that for `CC(=O)NC1=C(c2cccc(C(F)(F)F)c2)C(=O)OC1`, 140 °C. The result for `CNC(=O)N(C)C1=NN(C(=O)C(C)(C)C)C(C)S1` (stereo not drawn) reads 168 to 169 °C; that for `COc1ccc(CC(=O)N(Cc2ccc(C)cc2)C2CCN(CC3CCCCC3)CC2)cc1`, 133 to 135 °C.

Turning to `Cn1c([N+](=O)[O-])cnc1C=NN1CCN(CCN2CCOCC2)C1=O`, the melting point stood at 173 °C. The result for `Cc1cc(C=Cc2ccc(-c3ccc(C(F)(F)F)cc3)cc2)ccc1OCC(=O)O` reads 243 to 245 °C. The result for `CN1CC[C@H](CP(=O)(O)O)C[C@@H]1C(=O)O` (relative stereo) reads 256 to 260 °C; that for `CC(C)(C)OC(=O)N[C@H](CC(=O)OCc1ccccc1)C(=O)N[C@H](CO)C(C)(C)C`, 186 to 187 °C. The result for `CCOC(=O)C1=C(N)NC2=C(C(=O)CCC2)C1c1ccccc1N=[N+]=[N-]` (stereo not drawn) reads 209 °C.

Compound `CC(C)(C)c1ccc(CCC(O)CCC2CCCCC2)cc1NC(=O)CC1c2ccccc2Oc2ccccc21` (stereo not drawn) came in with a melting point of 136 to 137 °C.

As to `COC(=O)c1ccc(C=CC(=O)C=Cc2ccc(C(=O)OC)cc2)cc1`, the melting point is 206 to 210 °C. Under `COc1ccc(-c2cc(-c3ccc(O)c(F)c3)nc3c(Cl)cc(O)cc23)cc1` stands 140 to 142 °C; under `CN1CCC(c2c[nH]c3ccc(OCc4ccccc4)cc23)CC1`, 163 to 164 °C; under `O=C(O)[C@@H]1C[C@@H](O)CN1C(=O)OCc1ccccc1`, 106 to 107 °C.

`CC=CC=CCOC(=O)C1=C(C)NC(C)=C(C(=O)OC)C1c1cccc(C(F)(F)F)c1` (stereo not drawn) had a melting point of 130 to 131 °C. The result for `CCCc1nc2c(N)nc3cc(OCCN4CCCCC4)ccc3c2s1` reads 141 to 143 °C; that for `O=C1C(=Cc2ccc(Cl)s2)CCc2cc(OCCn3ccnc3)ccc21`, 143 to 144 °C.

With `CC(=O)c1c(-c2ccc(Cl)cc2)c(-c2ccc(Cl)cc2)nn(CCC2OC(CO)C(O)C(O)C2O)c1=O` (stereo not drawn), the melting point is 96 to 122 °C.

Take `CN1c2ccccc2N(C(=O)CNC(C)(C)C)c2ccccc2S1(=O)=O`: the melting point was in the range of 143 to 145 °C.

The compound `CCOC(Cc1ccccc1)=C1SC(=S)N(c2ccccc2)C1=O` yielded a melting point of 119 to 121 °C. Under `CNC(=O)Oc1cnn(C(C)C)c1` stands 40 °C. Under `Cc1cc(OCc2ccc(-c3ccc(C(F)(F)F)cc3)nc2)ccc1OC(C)(C)C(=O)O` stands 149 to 151 °C. The result for `CCCCCCCCCCCCCCOC(=O)CCC(=O)O` reads 48 to 49 °C. Compound `CC(=O)Nc1ccccc1-c1ccn[nH]c1=O` gave a melting point of 235 to 236 °C. The result for `N=C(N)c1cccc(Oc2cc(C(N)=O)cc(Oc3cccc(C(=N)N)c3)n2)c1` reads > 210 °C; that for `C#CCSc1ccc([N+](=O)[O-])cn1`, 98 to 99.5 °C.

Compound `CCOc1cc(-c2ccc3c(c2)C=C(C(=O)Nc2ccc(CN(C)C4CCOCC4)cc2)CCS3(=O)=O)ccc1C#N` showed a melting point of 244 to 247 °C. Under `O=C(O)c1[nH]c(=O)[nH]c(=O)c1[N+](=O)[O-]` stands > 300 °C. The result for `COC(=O)c1cc([N+](=O)[O-])ccc1-c1ccc([N+](=O)[O-])cc1C(=O)OC` reads 176 to 177 °C; that for `O[C@H](CN[C@H]1CCCc2ccccc21)COc1cccc2ccccc12`, 107 to 109 °C. Under `O=C(O)Cc1ccc(OCc2ccccc2)cc1OCc1ccccc1` stands 139 °C. Compound `CCC1(CC)Nc2ccccc2-c2c([N+](=O)[O-])cnn21` showed a melting point of 132 to 134 °C. Regarding `COc1nn(-c2ccc(C)c3c2OC(C)(C)C3)c(=O)o1`, the melting point was 60 to 62 °C. Under `CC(=Cc1ccc(N(C)C)cc1Cl)[N+](=O)[O-]` stands 93 to 94 °C.

For the compound `COc1ccc2c(c1OC)Oc1cccc3cncc-2c13`, the melting point lay in the range of 195 to 196 °C. Under `CCCCOCCOc1ccc(-c2ccc3c(c2)C=C(C(=O)Nc2ccc(CS(=O)c4nncn4C)cc2)CCN3CC(C)C)cc1` (stereo not drawn) stands 87 to 89 °C; under `O=C(O)c1ccc(COCc2csc3nc(C(=O)NCc4cccnc4)[nH]c(=O)c23)cc1`, 309 to 311 °C; under `CCN(CC)CCNC(=O)c1c2cc(I)ccc2nc2ccc(I)cc12`, 209 to 211 °C. Take `Cc1ccnc2c1C(=O)c1nccc(Cl)c1C2=O`: the melting point is > 300 °C. Under `CN1CCC(OC(c2cccc(O)c2)c2nc3ccccc3s2)CC1` (stereo not drawn) stands 201 °C; under `CCC(=O)OCC(=O)C12OCOC1CC1C3CCC4=CC(=O)C=CC4(C)C3C(O)CC12C` (stereo not drawn), 184 to 185 °C.

`C[C@@H]1CC[C@@H](C(C)(C)c2ccccc2)[C@@H](Oc2cn(C(c3ccccc3)c3ccccc3)c(=O)o2)C1` came in with a melting point of 118 to 120 °C.

`O=C(O)COc1cc(Cl)ccc1C(=O)NCc1nc2cc(C(F)(F)F)ccc2s1` displayed a melting point of 225 to 227 °C.

On to `Nc1sc2c(c1C(=O)c1cc3ccccc3o1)CCCC2`, for which the melting point was 86 to 89 °C.

Take `N#Cc1cccc(C2=Nc3cc(O)c(-c4ccccc4F)cc3NC(=O)C2)c1`: the melting point is > 250 °C.

Take `O=C(O)CCCCN(C(=O)c1ccc(Cl)cc1)c1ccc2c(c1)CCC2`: the melting point lay within 132 to 134 °C.

Take `CC(CCOc1cccc(=O)n1O)CC(C)(C)C` (stereo not drawn): the melting point was in the range of 130 to 131 °C. The result for `CCc1cnc2c(NC(=O)c3c(Cl)cccc3Cl)cccc2c1CC(C)(C)O` reads 203 to 204 °C; that for `N#Cc1cc(N)ccc1N1CCN(CCO)CC1`, 137 to 138 °C; that for `O=C=Nc1ccc(OCCOc2ccc(N=C=O)cc2)cc1`, 95 to 97 °C. Under `OC[C@@H]1CC[C@H](CO)O1` stands 128 to 129 °C; under `CCCCc1nc2c(c(=O)[nH]1)CN(C(=O)C(C)(C)O)CC2`, 159 to 161 °C; under `N#Cc1cc(F)c(N)c(F)c1`, 110 to 111 °C. Under `Nc1cccc2c(-c3ccc(=O)[nH]n3)c(-c3ccccc3)nn12` stands 157 to 159 °C; under `CC(=O)C1CC=C2C(CCC3=Cc4c(cnn4-c4ccc(F)cc4)CC32C)C1C(C)=O` (stereo not drawn), 157 to 159 °C; under `CCCCn1c(C)c(C2(c3c(C)n(CCCC)c4ccccc34)NNC(=O)c3ccccc32)c2ccccc21`, 206 °C.
